Results taken from US12037344B2, “NLRP3 modulators” (INNATE TUMOR IMMUNITY, INC., priority 2018, dated 2024).
Counter-ions that a name gives are not always drawn. Like-named read-outs stand apart in the source and are kept apart here.

Experiments:
[1] = molecular target: T1, TLR7 (Homo sapiens, UniProt Q9NYK1); test: In vitro human TLR7 binding reporter assay (HEK-Blue, NF-kB/AP1-inducible SEAP); format: cell-based; conditions: read-out: TLR7 Agonist EC50
T1 construct: human HEK-Blue cells co-expressing a TLR7 or TLR8 gene
T1 sequence (Q9NYK1 27-1049): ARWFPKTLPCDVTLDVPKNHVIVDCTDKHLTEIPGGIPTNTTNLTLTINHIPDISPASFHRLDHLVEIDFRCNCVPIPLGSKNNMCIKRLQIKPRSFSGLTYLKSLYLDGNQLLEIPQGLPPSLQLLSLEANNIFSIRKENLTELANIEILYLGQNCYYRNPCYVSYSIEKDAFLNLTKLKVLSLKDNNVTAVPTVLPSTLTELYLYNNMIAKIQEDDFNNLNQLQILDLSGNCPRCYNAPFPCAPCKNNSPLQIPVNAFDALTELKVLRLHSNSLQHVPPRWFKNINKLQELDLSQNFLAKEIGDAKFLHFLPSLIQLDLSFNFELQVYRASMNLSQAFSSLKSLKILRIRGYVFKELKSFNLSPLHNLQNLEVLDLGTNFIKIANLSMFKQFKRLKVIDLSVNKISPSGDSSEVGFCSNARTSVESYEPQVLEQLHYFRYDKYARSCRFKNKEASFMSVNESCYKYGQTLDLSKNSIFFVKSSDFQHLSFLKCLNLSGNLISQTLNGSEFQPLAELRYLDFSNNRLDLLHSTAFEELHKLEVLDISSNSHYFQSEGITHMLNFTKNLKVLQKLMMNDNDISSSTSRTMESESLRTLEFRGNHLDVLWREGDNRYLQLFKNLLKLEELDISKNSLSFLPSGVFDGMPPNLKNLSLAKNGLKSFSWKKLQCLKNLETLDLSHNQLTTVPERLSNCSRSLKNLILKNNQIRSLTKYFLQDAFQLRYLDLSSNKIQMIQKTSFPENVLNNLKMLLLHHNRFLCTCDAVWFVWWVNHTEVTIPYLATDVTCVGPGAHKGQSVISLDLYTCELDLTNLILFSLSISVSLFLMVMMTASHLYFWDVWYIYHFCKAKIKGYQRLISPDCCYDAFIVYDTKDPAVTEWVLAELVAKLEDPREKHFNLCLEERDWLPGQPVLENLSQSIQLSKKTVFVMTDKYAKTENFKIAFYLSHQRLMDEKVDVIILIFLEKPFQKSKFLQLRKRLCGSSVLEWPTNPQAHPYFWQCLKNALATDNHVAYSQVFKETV
Method in brief: (§1)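 Cells are seeded and grown for 24 h. Compounds or DMSO are then added and incubated 18 h at 37 °C. Quanti-Blue is added, and SEAP is read after thirty minutes. EC50 values are normalized, with RLU from 50 μM reference standard setting 100% Ymax.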

[2] = molecular target: T2, TLR8 (Homo sapiens, UniProt Q9NR97); test: In vitro human TLR8 binding reporter assay (HEK-Blue, NF-kB/AP1-inducible SEAP); format: cell-based; conditions: read-out: TLR8 Agonist EC50
T2 construct: human HEK-Blue cells co-expressing a TLR7 or TLR8 gene
T2 sequence (Q9NR97 27-1041): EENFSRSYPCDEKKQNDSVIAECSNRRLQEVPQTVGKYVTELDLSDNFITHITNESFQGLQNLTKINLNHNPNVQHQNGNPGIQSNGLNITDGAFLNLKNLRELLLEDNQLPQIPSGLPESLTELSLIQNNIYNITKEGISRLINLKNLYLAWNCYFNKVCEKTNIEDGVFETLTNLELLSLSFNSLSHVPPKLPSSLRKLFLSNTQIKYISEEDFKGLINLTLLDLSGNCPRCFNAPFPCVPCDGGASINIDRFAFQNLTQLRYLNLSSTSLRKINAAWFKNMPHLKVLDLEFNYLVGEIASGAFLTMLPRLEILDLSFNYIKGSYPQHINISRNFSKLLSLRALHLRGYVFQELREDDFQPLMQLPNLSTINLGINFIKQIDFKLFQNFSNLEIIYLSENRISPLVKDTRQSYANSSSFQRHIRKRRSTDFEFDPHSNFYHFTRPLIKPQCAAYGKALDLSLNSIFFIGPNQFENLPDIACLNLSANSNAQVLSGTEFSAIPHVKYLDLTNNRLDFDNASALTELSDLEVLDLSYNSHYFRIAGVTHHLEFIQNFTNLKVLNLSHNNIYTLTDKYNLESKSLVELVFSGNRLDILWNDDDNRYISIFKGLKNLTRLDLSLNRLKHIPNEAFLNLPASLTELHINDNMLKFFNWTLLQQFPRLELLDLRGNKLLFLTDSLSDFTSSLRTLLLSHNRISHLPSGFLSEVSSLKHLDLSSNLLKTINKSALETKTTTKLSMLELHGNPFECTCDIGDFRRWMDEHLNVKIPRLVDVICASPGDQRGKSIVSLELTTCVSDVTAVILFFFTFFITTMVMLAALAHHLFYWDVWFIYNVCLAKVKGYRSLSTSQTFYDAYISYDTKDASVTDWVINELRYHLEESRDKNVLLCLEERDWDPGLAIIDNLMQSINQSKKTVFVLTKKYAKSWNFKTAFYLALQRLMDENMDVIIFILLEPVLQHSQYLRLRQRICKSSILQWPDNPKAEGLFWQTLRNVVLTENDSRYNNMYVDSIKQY
Method in brief: as §1

[3] = tested on: THP-1 cells; test: Measurement of IL-1β production, hTRF protocol (second alternative procedure), THP-1 cells; format: cell-based, human; conditions: Homo sapiens
Method in brief: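 Compounds, dilution series starting at a final 10 μM, were incubated 2 hours at 37° C with PMA-differentiated THP-1 cells (50 ng/ml overnight; 50,000 cells/well, 2% FBS RPMI). Released IL-1β quantified in supernatant by hTRF kit with 1:40 antibody dilution, 4° C overnight, 665/615 nm ratio.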

[4] = THP-1, IL-1β production, human, read-out: NLRP3 hILIB EC50
[5] = THP-1, IL-1β production, human cells, read-out: NLRP3 hILIB EC50
[6] = THP-1, read-out: NLRP3 hILIB EC50

| Compound | EC50 ([1]; activity range class) [µM] | EC50 ([2]; activity range class) [µM] | EC50 [3, 4] [µM] | EC50 ([1]; activity range) [µM] | EC50 ([2]; activity range) [µM] | EC50 [3, 5] [µM] | EC50 [3, 6] [µM] |
| --- | --- | --- | --- | --- | --- | --- | --- |
| Nc1nc2cc(-c3cc[nH]n3)ccc2c2nn(CC3CCOC3)cc12 (single isomer, unassigned) [Example 327] | > 100 | > 100 | 0.7 | – | – | – | – |
| Nc1nc2cc(-c3cc[nH]n3)ccc2c2c1cnn2C1COC1 [Example 242] | > 100 | > 100 | 0.68 | – | – | – | – |
| Nc1nc2cc(-c3cc[nH]n3)ccc2c2nn(C3CCC(O)C3)cc12 (single isomer, unassigned) [Example 341] | > 100 | > 100 | 0.43 | – | – | – | – |
| Nc1nc2cc(-c3cc[nH]n3)ccc2c2cn(Cc3nc(-c4ccccc4)no3)nc12 [Example 169] | > 100 | 20 to 100 | 0.39 | – | – | – | – |
| Nc1nc2cc(-c3cc[nH]n3)ccc2c2nn(Cc3cccnn3)cc12 [Example 360] | > 100 | > 100 | 0.11 | – | – | – | – |
| Nc1nc2cc(-c3cc[nH]n3)ccc2c2nn(CCN3CCCC3)cc12 [Example 304] | > 100 | > 100 | 0.66 | – | – | – | – |
| Nc1nc2cc(-c3cc[nH]n3)ccc2c2nn(CCNC(=O)c3cc(Cl)ccn3)cc12 [Example 197] | > 100 | > 100 | 0.25 | – | – | – | – |
| Cc1nc(C(=O)NCCn2cc3c(n2)c(N)nc2cc(-c4cc[nH]n4)ccc23)c(C(F)(F)F)o1 [Example 71] | 20 to 100 | 20 to 100 | 0.81 | – | – | – | – |
| Nc1nc2cc(-c3cc[nH]n3)ccc2c2c1cnn2CCN1CC(F)(F)C1 [Example 430] | – | – | – | > 100 | > 100 | 1.9 | – |
| Cc1nc(C(=O)NCCc2cc3c(N)nc4cc(-c5cc[nH]n5)ccc4c3[nH]2)cs1 [Example 495] | – | – | – | > 100 | > 100 | 0.45 | – |
| Nc1nc2cc(-c3cc[nH]n3)ccc2c2cn(CCN3CCOCC3)nc12 [Example 20, 2-[2-(morpholin-4-yl)ethyl]-7-(1H-pyrazol-3-yl)-2H-pyrazolo[3,4-c]quinolin-4-amine] | 20 to 100 | > 100 | – | – | – | – | 1.08 |
| CC1(O)CCCC1n1cc2c(N)nc3cc(-c4cc[nH]n4)ccc3c2n1 (single isomer, unassigned) [Example 344] | > 100 | > 100 | 1.02 | – | – | – | – |
| CN(CCn1cc2c(n1)c(N)nc1cc(-c3cc[nH]n3)ccc12)Cc1ccccc1 [Example 121, 2-{2-[benzyl(methyl)amino]ethyl}-7-(1H-pyrazol-3-yl)-2H-pyrazolo[3,4-c]quinolin-4-amine] | > 100 | > 100 | – | – | – | – | 0.85 |
| Nc1nc2cc(-c3cc[nH]n3)ccc2c2cn(CCNC(=O)c3cc(CO)ccn3)nc12 [Example 57] | > 100 | > 100 | 2.21 | – | – | – | – |

Second part, led by results:

| EC50 ([1]; activity range class) [µM] | EC50 ([2]; activity range class) [µM] | EC50 [3, 4] [µM] | EC50 ([1]; activity range) [µM] | EC50 ([2]; activity range) [µM] | EC50 [3, 5] [µM] | Compound | EC50 [3, 6] [µM] |
| --- | --- | --- | --- | --- | --- | --- | --- |
| > 100 | > 100 | 0.27 | – | – | – | CCOCCn1cc2c(N)nc3cc(-c4cc[nH]n4)ccc3c2n1 [Example 222] | – |
| – | – | – | > 100 | > 100 | 0.16 | CN(C)C(=O)Cn1cc2c(N)nc3cc(-c4cc[nH]n4)ccc3c2n1 [Example 458, 2-(4-amino-7-(1H-pyrazol-5-yl)-2H-pyrazolo[4,3-c]quinolin-2-yl)-N,N-dimethylacetamide.TFA] | – |
| – | – | – | > 100 | > 100 | 2.47 | CC(C)NC(=O)CCn1cc2c(N)nc3cc(-c4cc[nH]n4)ccc3c2n1 [Example 510] | – |
| > 100 | > 100 | 0.15 | – | – | – | Nc1nc2cc(-c3cc[nH]n3)ccc2c2cn(Cc3cccnc3)nc12 [Example 167] | – |
| – | – | – | > 100 | > 100 | 0.13 | CS(=O)(=O)CCn1cc2c(N)nc3cc(-c4cc[nH]n4)ccc3c2n1 [Example 463] | – |
| > 100 | > 100 | 0.36 | – | – | – | Cc1nc(C(=O)NCCn2cc3c(n2)c(N)nc2cc(-c4cccs4)ccc23)co1 [Example 128, N-{2-[4-amino-7-(thiophen-2-yl)-2H-pyrazolo[3,4-c]quinolin-2-yl]ethyl}-2-methyl-1,3-oxazole-4-carboxamide] | – |
| > 100 | > 100 | 2.83 | – | – | – | CCC(=O)NC(C)Cn1cc2c(N)nc3cc(-c4ccn[nH]4)ccc3c2n1 (stereo not drawn) [Example 297] | – |
| – | – | – | > 100 | > 100 | 0.36 | CNC(=O)C(C)n1cc2c(N)nc3cc(-c4ccn[nH]4)ccc3c2n1 (stereo not drawn) [Example 560] | – |
| 20 to 100 | > 100 | 0.19 | – | – | – | Nc1nc2cc(-c3cc[nH]n3)ccc2c2cn(CCNC(=O)c3cc(F)ccn3)nc12 [Example 54] | – |
| – | – | – | > 100 | > 100 | 1.2 | Nc1nc2cc(-c3ccn[nH]3)ccc2c2nn(CCNS(=O)(=O)C3CC3)cc12 [Example 590] | – |
| 20 to 100 | 20 to 100 | 0.43 | – | – | – | Nc1nc2cc(-c3cc[nH]n3)ccc2c2cn(CCCOc3ccccc3)nc12 [Example 2, 2-(3-phenoxypropyl)-7-(1H-pyrazol-3-yl)-2H-pyrazolo[3,4-c]quinolin-4-amine] | – |
| > 100 | > 100 | 0.38 | – | – | – | C[C@@H](O)Cn1cc2c(N)nc3cc(-c4cc[nH]n4)ccc3c2n1 [Example 370] | – |
| – | – | – | > 100 | > 100 | 1.15 | CC(Cn1cc2c(N)nc3cc(-c4ccn[nH]4)ccc3c2n1)C(=O)N(C)C (stereo not drawn) [Example 488, 3-(4-amino-7-(1H-pyrazol-5-yl)-2H-pyrazolo[4,3-c]quinolin-2-yl)-N,N,2-trimethylpropanamide.TFA] | – |
| – | – | – | > 100 | > 100 | 1.26 | CC(O)Cn1cc2c(n1)c(N)nc1cc(-c3ccn[nH]3)ccc12 (stereo not drawn) [Example 451] | – |
| – | – | – | > 100 | > 100 | 0.13 | Nc1nc2cc(-c3ccn[nH]3)ccc2c2[nH]c(CCCO)cc12 [Example 440] | – |
| 1 to 20 | > 100 | 14.7 | – | – | – | COc1ccc(CC(=O)NCCn2cc3c(n2)c(N)nc2cc(-c4cc[nH]n4)ccc23)cc1 [Example 32] | – |
| – | – | – | > 100 | > 100 | 0.68 | CN(C)C(=O)C(C)(C)Cn1cc2c(N)nc3cc(-c4ccn[nH]4)ccc3c2n1 [Example 592] | – |
| > 100 | > 100 | 0.64 | – | – | – | Nc1nc2cc(-c3cc[nH]n3)ccc2c2nn(CCCCO)cc12 [Example 351] | – |
